Reference: patent US6924092B1, “Screening method involving MGDG synthase” (Commissariat a L'Energie Atomique, priority 1999, dated 2005)

How the values were obtained:
[1] = target: T1, MGDG synthase partially purified from spinach leaf chloroplasts (Spinacia oleracea, UniProt Q9SM44); settings: chloroplast envelope enzyme, Maréchal et al., J. Biol. Chem., 1995; cited from earlier work
T1 construct: the MGDG synthase partially purified from spinach leaf chloroplasts; host or cells: spinach leaf chloroplasts (envelope membranes)
T1 sequence (Q9SM44 99-522): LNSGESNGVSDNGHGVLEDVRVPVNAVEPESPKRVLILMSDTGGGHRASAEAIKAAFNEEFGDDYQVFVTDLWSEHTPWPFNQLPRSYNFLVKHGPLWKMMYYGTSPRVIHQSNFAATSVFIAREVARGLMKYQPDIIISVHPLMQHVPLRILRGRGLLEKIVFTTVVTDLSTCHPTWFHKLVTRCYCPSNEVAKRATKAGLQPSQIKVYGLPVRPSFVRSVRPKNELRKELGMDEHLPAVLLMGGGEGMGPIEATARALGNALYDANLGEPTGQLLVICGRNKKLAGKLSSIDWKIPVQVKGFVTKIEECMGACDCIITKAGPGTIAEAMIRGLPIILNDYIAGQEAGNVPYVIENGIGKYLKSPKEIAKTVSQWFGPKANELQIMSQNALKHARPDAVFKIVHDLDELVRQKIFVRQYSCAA

[2] = target: T2, rMGD A (overexpressed spinach MGDG synthase) (Spinacia oleracea, UniProt Q9SM44); experiment: Galactosylation activity of partially purified recombinant MGDG synthase (rMGD A), measured with micelles and UDP-[14C]gal; type: biochemical; settings: for Inhibition of rMGD A activity (in words): overexpressed rMGD A; for activity at 150 µM: 150 μM NEM 10 min, % of control
T2 construct: Two mature forms of MGDG synthase are overexpressed in E. coli; additional initiation methionine (N); made in house; host or cells: E. coli BL21(DE3), plasmid pET-Y 3a; solubilised with CHAPS and partially purified on hydroxyapatite
T2 sequence (Q9SM44 99-522): T1 sequence (Q9SM44 99-522)
Experimental: The activity of the MGDG synthase is measured on various types of sample, depending on the model chosen: plastidial membrane, membrane fractions of E. coli overexpressing a recombinant MGDG synthase (rMGD A, 0.7 μg protein/assay, enzyme extracted beforehand from a plant (see Example 1)).
1.3 mM of phosphatidylglycerol (PG) and 160 μM of diacylglycerol (DAG) are dissolved in chloroform. After evaporating the solvent under argon, 200 μl of incubation medium containing 50 mM of MOPS-NaOH, pH 7.8, 4.5 mM OF CHAPS, 1 mM of DTT, 250 mM of KH2PO4/K2HPO4 and 250 mM of KCl are added and the medium is mixed vigorously so as to resuspend the lipids. 100 μl of fractions containing the MGDG synthase, in the incubation medium, are introduced then the medium is again mixed vigorously and then maintained at 20° C. for 1 h.
The reaction in the incubation mixture is then initiated by adding 1 mM of UDP-[^14C]gal (37 Bq/μmol). After 10 min to 1 h, the reaction is stopped by adding a chloroform/methanol mixture (1:2, v/v), the lipids are extracted in accordance with the method of Bligh et al (Can. J. Biochem. Physiol, 1959, 37, 911-917) and the radioactivity of the labeled galactolipids is determined by liquid scintillation counting as described in Covès et al. (FEBS lett., 1986, 208, 401-406). The activity is expressed in μmol of galactose incorporated/h/mg of protein.
The fractions of partially purified rMGD A are desalified by chromatography on a Biogel P6-DG (Bio-Rad) column (Pharmacia, C10/40 column, 30 ml of gel) equilibrated in DTT. Aliquots (200 μl) of the fractions are incubated for 40 minutes at 25° C. with gentle stirring, in the presence or absence of DTT. The galactosylation activity is then measured as specified above (see Example 3).
In order to obtain the results summarized in Table II, the rMGD A is desalified by chromatography on a Biogel P6-DG (Bio-Rad) column (Pharmacia, C10/40, column, 30 ml of gel) equilibrated in DTT. Aliquots (200 μl) of the fractions are incubated for 30 minutes at 25° C. with gentle stirring, followed by a 10 min incubation in the presence or absence of 150 μM NEM and then a 10 min incubation in the presence or absence of DTT. The galactosilyation activity is then measured as specified above (see Example 3).

Effect of DTT on rMGD A activity after desalification (in words) ([2]; DTT removed on Biogel P6-DG column, DTT added back) | Activity (%) ([2]; desalified hydroxyapatite fraction + 1 mM DTT, 40 min at 25° C., percentage of the control (not desalified) activity) | Activity (%) ([2]; desalified hydroxyapatite fraction + 10 mM DTT, 40 min at 25° C., percentage of the control (not desalified) activity) | activity at 10000 µM ([2]; desalified rMGD A, pre-incubation 30 min without addition, no NEM, then 10 mM DTT 10 min, % of control (50 min in 10 mM DTT)) [%] | Activity (%) ([2]; with orthophenanthroline, no other additions, initial activity (time 0) = 100) | Activity (%) ([2]; with orthophenanthroline, other addition PG, initial activity (time 0) = 100) | Activity (%) ([2]; with orthophenanthroline, other addition UDP-gal, initial activity (time 0) = 100) | Activity (%) ([2]; with orthophenanthroline, other additions PG + DAG, initial activity (time 0) = 100) | SMILES | Inhibition of the enzyme (in words) [1] | Inhibition of rMGD A activity (in words) [2] | activity at 150 µM ([2]; pre-incubation 30 min with DTT, no further DTT incubation, reaction + PG + DAG + UDP-gal) [%] | activity at 150 µM ([2]; pre-incubation 30 min with PG + DAG, then 10 mM DTT 10 min, reaction + UDP-gal) [%] | activity at 150 µM ([2]; pre-incubation 30 min with PG, then 10 mM DTT 10 min, reaction + DAG + UDP-gal) [%] | activity at 150 µM ([2]; pre-incubation 30 min with UDP-gal, then 10 mM DTT 10 min, reaction + PG + DAG) [%] | activity at 150 µM ([2]; pre-incubation 30 min without addition, then 10 mM DTT 10 min, reaction + PG + DAG + UDP-gal) [%] | Protection of enzyme activity against oxidation (in words) [1]
 |  |  |  |  |  |  |  | CCN1C(=O)C=CC1=O [NEM, N-ethylmaleimide] | powerful inhibitors | very sensitive | 108 | 60 | 56 | 32 | 35 | 
maintains its activity | 75 | 65 | 101 |  |  |  |  | O[C@H](CS)[C@H](O)CS (racemic) [DTT, dithiothreitol] |  |  |  |  |  |  |  | can protect the activity of the enzyme against oxidation
 |  |  |  | 43 | 27 | 17 | 92 | c1cnc2c(c1)ccc1cccnc12 [orthophenanthroline] | powerful inhibitors | inhibited |  |  |  |  |  | 
